# Target: E3 (His-APC11/APC2-"APC") (Homo sapiens, UniProt Q9NYG5+Q9UJX6)
# Assay: Plate-based E3 ligase assay (APC FLAG), auto-ubiquitination
# Type: biochemical
# Set-up: key: “+” indicates that the compound exibits inhibitory activity; “−” indicates that low or no inhibitory activity was observed
# Details: 2 concentrations tested
# Protocol: E3 (His-APC11/APC2-“APC”) auto-ubiquitination was measured as described in U.S. patent application Ser. No. 09/826,312 (Publication No. US-2002-0042083-A1), which is incorporated herein in its entirety. Details of the protocol are described below. Activity in the presence of the compound was determined relative to a parallel control in which only DMSO was added. Values of the IC50 were typically determined using 6 or 8 different concentrations of the compound, although as few as 2 concentrations may be used to approximate the IC50 value.
# Nickel-coated 96-well plates (Pierce 15242) were blocked for 1 hour with 100 μl of blocking buffer at room temperature. The plates were washed 4 times with 225 μl of 1×PBS and 80 μl of the reaction buffer were added that contained 100 ng/well of Flag-ubiquitin. To this, 10 μl of the test compound diluted in DMSO were added. After the test compound was added, 10 μl of E1 (human), E2 (Ubch5c), and APC in Protein Buffer was added to obtain a final concentration of 5 ng/well of E1, 20 ng/well of E2 and 100 ng/well of APC. The plate were shaken for 10 minutes and incubated at room temperature for 1 hour. After incubation, the plates were washed 4 times with 225 μl of 1×PBS and 100 μl/well of Antibody Mix were added to each well. The plates were incubate at room temperature for another hour after which they were washed 4 times with 225 μl of 1×PBS and 100 μl/well of Lumino substrate were added to each well. The luminescence was measured by using a BMG luminescence microplate reader.
# To prepare the Blocking Buffer (1 liter; 1% Casein in 1×PBS), 10 grams of Casein (Hammersten Grade Casein from Gallard-Schlesinger Inc. #440203) were placed into 1 liter of 1×PBS, stirred on a hot plate and kept between 50-60° C. for an hour. The buffer was allowed to cool to room temperature and then filtered using a Buchner Funnel (Buchner filter funnel 83 mm 30310-109) and Whatman filter paper (Whatman Grade No. 1 Filter paper 28450-070). It was stored at 4° C. until used.
# The reaction buffer consisted of 62.5 mM Tris pH 7.6 (Trizma Base—Sigma T-8524), 3 mM MgCl2 (Magnesium Chloride—Sigma M-2393), 1 mM DTT (Sigma D-9779), 2.5 mM ATP (Roche Boehringer Mann Corp. 635-316), 100 ng/well of Flag-ubiquitin, 0.1% BSA (Sigma A-7906), and 0.05% Tween-20 (Sigma P-7949).
# The Protein Buffer consisted of 20 mM Tris pH 7.6, 10% glycerol (Sigma G-5516) and 1 mM DTT.
# The antibody mix consisted of 0.25% BSA (Sigma A-7906) in 1×PBS, 1/50,000 anti-Flag (Sigma F-3165), 1/100,000 of anti-Mouse IgG-HRP (Jackson Immunoresearch #115-035-146).
# The substrate mix consisted of SuperSignal Substrate from Pierce (catalog number 37070ZZ) and was prepared by mixing 100 ml of the peroxide solution, 100 ml of the enhancer solution and 100 ml of Milli-Q® water.
# Chain of E3 (His-APC11/APC2-"APC") (Q9NYG5 whole entry): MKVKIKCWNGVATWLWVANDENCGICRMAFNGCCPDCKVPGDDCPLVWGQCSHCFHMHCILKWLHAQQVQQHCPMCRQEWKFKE
# Chain of E3 (His-APC11/APC2-"APC") (Q9UJX6 whole entry): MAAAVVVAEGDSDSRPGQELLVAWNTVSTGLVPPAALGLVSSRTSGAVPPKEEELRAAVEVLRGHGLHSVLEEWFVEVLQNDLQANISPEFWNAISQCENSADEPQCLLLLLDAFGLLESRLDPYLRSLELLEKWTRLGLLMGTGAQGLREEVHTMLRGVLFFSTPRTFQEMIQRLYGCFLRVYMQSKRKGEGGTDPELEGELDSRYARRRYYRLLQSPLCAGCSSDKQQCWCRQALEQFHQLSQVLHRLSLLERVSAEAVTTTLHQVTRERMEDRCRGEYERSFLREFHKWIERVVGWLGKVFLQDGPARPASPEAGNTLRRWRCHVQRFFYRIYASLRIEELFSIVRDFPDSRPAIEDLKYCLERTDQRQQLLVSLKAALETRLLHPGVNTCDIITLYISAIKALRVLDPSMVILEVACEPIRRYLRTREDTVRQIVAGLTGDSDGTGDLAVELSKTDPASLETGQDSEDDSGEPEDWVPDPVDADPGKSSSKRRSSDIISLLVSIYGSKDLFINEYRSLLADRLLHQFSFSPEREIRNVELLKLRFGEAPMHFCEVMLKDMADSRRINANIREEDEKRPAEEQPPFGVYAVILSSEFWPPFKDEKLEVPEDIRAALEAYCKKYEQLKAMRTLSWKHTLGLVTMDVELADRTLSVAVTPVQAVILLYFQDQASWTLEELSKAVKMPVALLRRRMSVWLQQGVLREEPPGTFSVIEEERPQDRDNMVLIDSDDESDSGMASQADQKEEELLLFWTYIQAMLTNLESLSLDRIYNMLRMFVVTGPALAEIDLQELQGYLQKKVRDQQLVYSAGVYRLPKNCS
row,APC Flag (2 pt),Structure (SMILES)
1,− (2 pt),"CC(=O)c1cccc(NS(=O)(=O)c2cc(Cl)c(Oc3ccc([N+](=O)[O-])cc3Cl)c(Cl)c2)c1 [Example 186, N-(3-acetylphenyl)-3,5-dichloro-4-(2-chloro-4-nitrophenoxy)benzenesulfonamide]"
2,− (2 pt),"O=S(=O)(Nc1cccc(Br)c1)c1ccc(Oc2ccc(F)cc2)cc1 [Example 187, N-(3-bromophenyl)-4-(4-fluorophenoxy) benzenesulfonamide]"
3,− (2 pt),"Cc1c(Cl)cccc1NS(=O)(=O)c1ccc(Oc2ccc(F)cc2)cc1 [Example 188, N-(3-chloro-2-methylphenyl)-4-(4-fluoro-phenoxy)benzenesulfonamide]"
4,− (2 pt),"O=S(=O)(Nc1ccc(F)c(Cl)c1)c1ccc(Oc2ccc(F)cc2)cc1 [Example 189, N-(3-chloro-4-fluorophenyl)-4-(4-fluoro-phenoxy)benzenesulfonamide]"
5,− (2 pt),"CN(c1cc(Cl)cc(Cl)c1)S(=O)(=O)c1cc(Cl)c(Oc2ccc([N+](=O)[O-])cc2Cl)c(Cl)c1 [Example 190, 3,5-dichloro-4-(2-chloro-4-nitrophenoxy)-N-(3,5-dichlorophenyl)-N-methylbenzene-sulfonamide]"
6,− (2 pt),"Cc1c(Cl)cccc1NS(=O)(=O)c1ccc(Oc2ccc(Cl)cc2)cc1 [Example 194, N-(3-chloro-2-methylphenyl)-4-(4-chloro-phenoxy)benzenesulfonamide]"
7,− (2 pt),"O=S(=O)(Nc1ccc(F)c(Cl)c1)c1ccc(Oc2ccc(Cl)cc2)cc1 [Example 195, N-(3-chloro-4-fluorophenyl)-4-(4-chloro-phenoxy)benzenesulfonamide]"
8,− (2 pt),"O=S(=O)(Nc1cccc(Br)c1)c1ccc(Oc2ccc(Cl)cc2)cc1 [Example 196, N-(3-bromophenyl)-4-(4-chlorophenoxy) benzenesulfonamide]"

# Same assay, conditions: 8 concentrations tested
row,APC Flag 8 pt,Structure (SMILES)
1,−,"N=C(N)NCCC[C@H](NS(=O)(=O)c1cc(Cl)c(Oc2ccc([N+](=O)[O-])cc2Cl)c(Cl)c1)C(N)=O [Example 141, N^2-{[3,5-dichloro-4-(2-chloro-4-nitrophenoxy)phenyl]sulfonyl}argininamide]"
2,+,"Cc1cc(C)c(NS(=O)(=O)c2cc(Cl)c(Oc3ccc([N+](=O)[O-])cc3Cl)c(Cl)c2)c(C)c1 [Example 144, 3,5-dichloro-4-(2-chloro-4-nitrophenoxy)-N-mesitylbenzenesulfonamide]"
3,+,"O=C(NCC1CC1)c1ccc(NS(=O)(=O)c2cc(Cl)c(Oc3ccc([N+](=O)[O-])cc3Cl)c(Cl)c2)cc1 [Example 152, N-(cyclopropylmethyl)-4-({[3,5-dichloro-4-(2-chloro-4-nitrophenoxy)phenyl]sulfonyl}amino)benzamide]"
4,+,"COc1ccc(NS(=O)(=O)c2cc(Cl)c(Oc3ccc([N+](=O)[O-])cc3Cl)c(Cl)c2)c(OC)c1OC [Example 157, 3,5-dichloro-4-(2-chloro-4-nitrophenoxy)-N-(2,3,4-trimethoxyphenyl)benzenesulfonamide]"
5,−,"O=[N+]([O-])c1ccc(Oc2c(Cl)cc(S(=O)(=O)NC(=S)Nc3cccnc3)cc2Cl)c(Cl)c1 [Example 158, 3,5-dichloro-4-(2-chloro-4-nitrophenoxy)-N-[(pyridin-3-ylamino)carbonothioyl] benzenesulfonamide]"
6,+,"Cc1cccc(NS(=O)(=O)c2cc(Cl)c(Oc3ccc([N+](=O)[O-])cc3Cl)c(Cl)c2)c1 [Example 161, 3,5-dichloro-4-(2-chloro-4-nitrophenoxy)-N-(3-methylphenyl)benzenesulfonamide]"
7,+,"O=[N+]([O-])c1ccc(Oc2c(Cl)cc(S(=O)(=O)Nc3ccc4c(c3)OCO4)cc2Cl)c(Cl)c1 [Example 162, N-1,3-benzodioxol-5-yl-3,5-dichloro-4-(2-chloro-4-nitrophenoxy)benzenesulfonamide]"
8,+,"COc1cccc(NS(=O)(=O)c2cc(Cl)c(Oc3ccc([N+](=O)[O-])cc3Cl)c(Cl)c2)c1 [Example 163, 3,5-dichloro-4-(2-chloro-4-nitrophenoxy)-N-(3-methoxyphenyl)benzenesulfonamide]"
9,+,"N#Cc1cccc(NS(=O)(=O)c2cc(Cl)c(Oc3ccc([N+](=O)[O-])cc3Cl)c(Cl)c2)c1 [Example 169, 3,5-dichloro-4-(2-chloro-4-nitrophenoxy)-N-(3-cyanophenyl)benzenesulfonamide]"
10,−,"O=[N+]([O-])c1ccc(Oc2c(Cl)cc(S(=O)(=O)Nc3ccc(Cl)cc3)cc2Cl)c(Cl)c1 [Example 176, 3,5-dichloro-4-(2-chloro-4-nitrophenoxy)-N-(4-chlorophenyl)benzenesulfonamide]"
11,+,"O=[N+]([O-])c1ccc(Oc2c(Cl)cc(S(=O)(=O)Nc3cc(F)cc(F)c3)cc2Cl)c(Cl)c1 [Example 177, 3,5-dichloro-4-(2-chloro-4-nitrophenoxy)-N-(3,5-difluorophenyl)benzenesulfonamide]"
12,+,"O=[N+]([O-])c1ccc(Oc2c(Cl)cc(S(=O)(=O)Nc3cccc(Cl)c3Cl)cc2Cl)c(Cl)c1 [Example 178, 3,5-dichloro-4-(2-chloro-4-nitrophenoxy)-N-(2,3-dichlorophenyl)benzenesulfonamide]"
13,−,"N#Cc1c(Cl)cccc1Oc1ccc(S(=O)(=O)Nc2cccc(Br)c2)cc1 [Example 180, N-(3-bromophenyl)-4-(3-chloro-2-cyano-phenoxy)benzenesulfonamide]"
14,−,"Cc1c(Cl)cccc1NS(=O)(=O)c1ccc(Oc2cccc(Cl)c2C#N)cc1 [Example 181, 4-(3-chloro-2-cyanophenoxy)-N-(3-chloro-2-methylphenyl)benzenesulfonamide]"
15,−,"N#Cc1c(Cl)cccc1Oc1ccc(S(=O)(=O)Nc2ccc(F)c(Cl)c2)cc1 [Example 182, 4-(3-chloro-2-cyanophenoxy)-N-(3-chloro-4-fluorophenyl)benzenesulfonamide]"
16,−,"O=[N+]([O-])c1cccc(Cl)c1Oc1ccc(S(=O)(=O)Nc2cccc(Br)c2)cc1 [Example 183, N-(3-bromophenyl)-4-(2-chloro-6-nitro-phenoxy)benzenesulfonamide]"
17,−,"Cc1c(Cl)cccc1NS(=O)(=O)c1ccc(Oc2c(Cl)cccc2[N+](=O)[O-])cc1 [Example 184, N-(3-chloro-2-methylphenyl)-4-(2-chloro-6-nitrophenoxy)benzenesulfonamide]"
18,−,"O=[N+]([O-])c1cccc(Cl)c1Oc1ccc(S(=O)(=O)Nc2ccc(F)c(Cl)c2)cc1 [Example 185, N-(3-chloro-4-fluorophenyl)-4-(2-chloro-6-nitrophenoxy)benzenesulfonamide]"

row,Structure (SMILES),APC Flag 8 pt
1,"O=[N+]([O-])c1ccc(N(S(=O)(=O)c2cc(Cl)c(Oc3ccc([N+](=O)[O-])cc3Cl)c(Cl)c2)S(=O)(=O)c2cc(Cl)c(Oc3ccc([N+](=O)[O-])cc3Cl)c(Cl)c2)cc1 [Example 138, 3,5-dichloro-4-(2-chloro-4-nitrophenoxy)-N-(1,3-dichloro-2-(2-chloro-4-nitrophenoxy)-5-sulfonylbenzene)-N-(4-nitrophenyl) benzenesulfonamide]",+
2,"Cc1cc(C)c(N(S(=O)(=O)c2cc(Cl)c(Oc3ccc([N+](=O)[O-])cc3Cl)c(Cl)c2)S(=O)(=O)c2cc(Cl)c(Oc3ccc([N+](=O)[O-])cc3Cl)c(Cl)c2)c(C)c1 [Example 142, 3,5-dichloro-4-(2-chloro-4-nitrophenoxy)-N-mesityl-N-(1,3-dichloro-2-(2-chloro-4-nitrophenoxy)-5-sulfonylbenzene)benzene-sulfonamide]",+
3,"Cc1c(Cl)cccc1N(S(=O)(=O)c1cc(Cl)c(Oc2ccc([N+](=O)[O-])cc2Cl)c(Cl)c1)S(=O)(=O)c1cc(Cl)c(Oc2ccc([N+](=O)[O-])cc2Cl)c(Cl)c1 [Example 143, 3,5-dichloro-N-(3-chloro-2-methylphenyl)-4-(2-chloro-4-nitrophenoxy)-N-(1,3-dichloro-2-(2-chloro-4-nitrophenoxy)-5-sulfonylbenzene)benzenesulfonamide]",+
